Reference: the supplement of paper PMC10307832

Tests used:
Test in all cases: relative viability (nuclei count vs DMSO), 5 days (fraction); higher = more cells survive
NCI-H1975 = test system: NCI-H1975
Outline: (§1)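 Medians of duplicate plates are given as relative viability. That measure is the nuclei count in treated wells divided by the count in vehicle wells. Counts were taken on 4× images of lung cancer cell lines in 1536-well plates, 5 days after pin-tool dosing the day after seeding with one drug alone or a fixed anchor-drug dose plus five library-drug doses (not always all listed) in √10 steps.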

COR-L 105 = test system: COR-L 105
Outline: as §1

201T = test system: 201T
Outline: as §1

LU99A = test system: LU99A
Outline: as §1

NCI-H2085 = test system: NCI-H2085
Outline: as §1

NCI-H2126 = test system: NCI-H2126
Outline: as §1

PC-3 [JPC-3] = test system: PC-3 [JPC-3]
Outline: as §1

HCC-827 = test system: HCC-827
Outline: as §1

SW 1573 = test system: SW 1573
Outline: as §1

NCI-H1437 = test system: NCI-H1437
Outline: as §1

NCI-H647 = test system: NCI-H647
Outline: as §1

LCLC-97TM1 = test system: LCLC-97TM1
Outline: as §1

NCI-H2087 = test system: NCI-H2087
Outline: as §1

EPLC-272H = test system: EPLC-272H
Outline: as §1

NCI-H358 = test system: NCI-H358
Outline: as §1

H3255 = test system: H3255
Outline: as §1

HCC-44 = test system: HCC-44
Outline: as §1

LOU-NH91 = test system: LOU-NH91
Outline: as §1

EKVX = test system: EKVX
Outline: as §1

NCI-H1395 = test system: NCI-H1395
Outline: as §1

NCI-H1666 = test system: NCI-H1666
Outline: as §1

NCI-H2342 = test system: NCI-H2342
Outline: as §1

BEN = test system: BEN
Outline: as §1

HOP-62 = test system: HOP-62
Outline: as §1

For `Clc1ccc(Nc2nnc(Cc3ccncc3)c3ccccc23)cc1` [Vatalanib] + N=C(N)NC(=N)NCCc1ccccc1 [Phenformin] (partner 250 µM), the relative viability (NCI-H1975; first compound 0.04 µM) was 0.405, the relative viability (NCI-H1975; first compound 0.1265 µM) was 0.415 and the relative viability (NCI-H1975; first compound 0.4 µM) was 0.422. For the same compound, the relative viability (NCI-H1975; first compound 1.265 µM) was 0.357, the relative viability (NCI-H1975; first compound 4 µM) was 0.4 and the relative viability (COR-L 105; first compound 0.04 µM) was 0.469. It also gave a relative viability (COR-L 105; first compound 0.1265 µM) of 0.37, a relative viability (COR-L 105; first compound 0.4 µM) of 0.475 and a relative viability (COR-L 105; first compound 1.265 µM) of 0.45. It also gave a relative viability (COR-L 105; first compound 4 µM) of 0.423, a relative viability (201T; first compound 0.04 µM) of 0.436 and a relative viability (201T; first compound 0.1265 µM) of 0.451. The relative viability (201T; first compound 0.4 µM) was 0.437, the relative viability (201T; first compound 1.265 µM) was 0.405 and the relative viability (201T; first compound 4 µM) was 0.431. For the same compound, the relative viability (LU99A; first compound 0.04 µM) was 0.839, the relative viability (LU99A; first compound 0.1265 µM) was 0.764 and the relative viability (LU99A; first compound 0.4 µM) was 1.04. The relative viability (LU99A; first compound 1.265 µM) was 0.705, the relative viability (LU99A; first compound 4 µM) was 0.813 and the relative viability (NCI-H2085; first compound 0.04 µM) was 0.701. For the same compound, the relative viability (NCI-H2085; first compound 0.1265 µM) was 0.668, the relative viability (NCI-H2085; first compound 0.4 µM) was 0.734 and the relative viability (NCI-H2085; first compound 1.265 µM) was 0.724. For the same compound, the relative viability (NCI-H2085; first compound 4 µM) was 0.632, the relative viability (NCI-H2126; first compound 0.04 µM) was 0.508 and the relative viability (NCI-H2126; first compound 0.1265 µM) was 0.521. The relative viability (NCI-H2126; first compound 0.4 µM) was 0.453, the relative viability (NCI-H2126; first compound 1.265 µM) was 0.487 and the relative viability (NCI-H2126; first compound 4 µM) was 0.546. It also gave a relative viability (PC-3 [JPC-3]; first compound 0.04 µM) of 0.456, a relative viability (PC-3 [JPC-3]; first compound 0.1265 µM) of 0.465 and a relative viability (PC-3 [JPC-3]; first compound 0.4 µM) of 0.456. It also gave a relative viability (PC-3 [JPC-3]; first compound 1.265 µM) of 0.493, a relative viability (PC-3 [JPC-3]; first compound 4 µM) of 0.508 and a relative viability (HCC-827; first compound 0.04 µM) of 0.413. The relative viability (HCC-827; first compound 0.1265 µM) was 0.418, the relative viability (HCC-827; first compound 0.4 µM) was 0.304 and the relative viability (HCC-827; first compound 1.265 µM) was 0.425. It also gave a relative viability (HCC-827; first compound 4 µM) of 0.378, a relative viability (SW 1573; first compound 0.04 µM) of 0.402 and a relative viability (SW 1573; first compound 0.1265 µM) of 0.374. For the same compound, the relative viability (SW 1573; first compound 0.4 µM) was 0.368, the relative viability (SW 1573; first compound 1.265 µM) was 0.324 and the relative viability (SW 1573; first compound 4 µM) was 0.347. The relative viability (NCI-H1437; first compound 0.04 µM) was 0.341, the relative viability (NCI-H1437; first compound 0.1265 µM) was 0.281 and the relative viability (NCI-H1437; first compound 0.4 µM) was 0.298. For the same compound, the relative viability (NCI-H1437; first compound 1.265 µM) was 0.247, the relative viability (NCI-H1437; first compound 4 µM) was 0.273 and the relative viability (NCI-H647; first compound 0.04 µM) was 0.466. It also gave a relative viability (NCI-H647; first compound 0.1265 µM) of 0.562, a relative viability (NCI-H647; first compound 0.4 µM) of 0.521 and a relative viability (NCI-H647; first compound 1.265 µM) of 0.401. It also gave a relative viability (NCI-H647; first compound 4 µM) of 0.54, a relative viability (LCLC-97TM1; first compound 0.04 µM) of 0.417 and a relative viability (LCLC-97TM1; first compound 0.1265 µM) of 0.388. It also gave a relative viability (LCLC-97TM1; first compound 0.4 µM) of 0.46, a relative viability (LCLC-97TM1; first compound 1.265 µM) of 0.407 and a relative viability (LCLC-97TM1; first compound 4 µM) of 0.396. The relative viability (NCI-H2087; first compound 0.04 µM) was 0.484, the relative viability (NCI-H2087; first compound 0.1265 µM) was 0.404 and the relative viability (NCI-H2087; first compound 0.4 µM) was 0.428. It also gave a relative viability (NCI-H2087; first compound 1.265 µM) of 0.461, a relative viability (NCI-H2087; first compound 4 µM) of 0.541 and a relative viability (EPLC-272H; first compound 0.04 µM) of 0.324. For the same compound, the relative viability (EPLC-272H; first compound 0.1265 µM) was 0.323, the relative viability (EPLC-272H; first compound 0.4 µM) was 0.275 and the relative viability (EPLC-272H; first compound 1.265 µM) was 0.349. The relative viability (EPLC-272H; first compound 4 µM) was 0.348, the relative viability (NCI-H358; first compound 0.04 µM) was 0.32 and the relative viability (NCI-H358; first compound 0.1265 µM) was 0.304. For the same compound, the relative viability (NCI-H358; first compound 0.4 µM) was 0.381, the relative viability (NCI-H358; first compound 1.265 µM) was 0.367 and the relative viability (NCI-H358; first compound 4 µM) was 0.326. For the same compound, the relative viability (H3255; first compound 0.04 µM) was 0.397, the relative viability (H3255; first compound 0.1265 µM) was 0.392 and the relative viability (H3255; first compound 0.4 µM) was 0.316. For the same compound, the relative viability (H3255; first compound 1.265 µM) was 0.368, the relative viability (H3255; first compound 4 µM) was 0.368 and the relative viability (HCC-44; first compound 0.04 µM) was 0.178. The relative viability (HCC-44; first compound 0.1265 µM) was 0.257, the relative viability (HCC-44; first compound 0.4 µM) was 0.0876 and the relative viability (HCC-44; first compound 1.265 µM) was 0.182. It also gave a relative viability (HCC-44; first compound 4 µM) of 0.147, a relative viability (LOU-NH91; first compound 0.04 µM) of 0.694 and a relative viability (LOU-NH91; first compound 0.1265 µM) of 0.679. The relative viability (LOU-NH91; first compound 1.265 µM) was 0.697, the relative viability (LOU-NH91; first compound 4 µM) was 0.668 and the relative viability (EKVX; first compound 0.04 µM) was 0.232. It also gave a relative viability (EKVX; first compound 0.1265 µM) of 0.236, a relative viability (EKVX; first compound 0.4 µM) of 0.205 and a relative viability (EKVX; first compound 4 µM) of 0.212. For the same compound, the relative viability (NCI-H1395; first compound 0.04 µM) was 0.441, the relative viability (NCI-H1395; first compound 0.1265 µM) was 0.419 and the relative viability (NCI-H1395; first compound 0.4 µM) was 0.437. The relative viability (NCI-H1395; first compound 1.265 µM) was 0.399, the relative viability (NCI-H1395; first compound 4 µM) was 0.449 and the relative viability (NCI-H1666; first compound 0.04 µM) was 0.563. For the same compound, the relative viability (NCI-H1666; first compound 0.1265 µM) was 0.566, the relative viability (NCI-H1666; first compound 0.4 µM) was 0.449 and the relative viability (NCI-H1666; first compound 1.265 µM) was 0.519. The relative viability (NCI-H1666; first compound 4 µM) was 0.559, the relative viability (NCI-H2342; first compound 0.04 µM) was 0.573 and the relative viability (NCI-H2342; first compound 0.1265 µM) was 0.477. The relative viability (NCI-H2342; first compound 0.4 µM) was 0.461, the relative viability (NCI-H2342; first compound 1.265 µM) was 0.652 and the relative viability (NCI-H2342; first compound 4 µM) was 0.53. For the same compound, the relative viability (BEN; first compound 0.04 µM) was 0.29, the relative viability (BEN; first compound 0.1265 µM) was 0.233 and the relative viability (BEN; first compound 0.4 µM) was 0.274. It also gave a relative viability (BEN; first compound 1.265 µM) of 0.231, a relative viability (BEN; first compound 4 µM) of 0.306 and a relative viability (HOP-62; first compound 0.04 µM) of 0.668. It also gave a relative viability (HOP-62; first compound 0.1265 µM) of 0.65, a relative viability (HOP-62; first compound 0.4 µM) of 0.649 and a relative viability (HOP-62; first compound 1.265 µM) of 0.624. The relative viability (HOP-62; first compound 4 µM) was 0.633.
